From patent publication US20120316137A1, “Methods and Compositions for Treating Cancer” (priority 2009, published 2012)
Where “and” joins values, the source holds several entries; their conditions need not be identical. Equal entries are not always repeated. Where two headings read alike, the source gives them in different places.

How the values were obtained:
[1] = tested on: Phospho-Erk1/2 in SNU1 cells; experiment: Western immunoblotting; settings: Homo sapiens, SNU1, read-out: Phospho-Erk1/2 IC50 (nM)
AN3CA cells = experiment: Soft agar colony formation assay; assay type: cell-based; settings: Homo sapiens, AN3-CA, read-out: Soft Agar IC50 (nM)
Procedure: (§1) The soft agar assay was performed using the CytoSelect 96-Well Cell Transformation Assay (Cell Biolabs, San Diego, Calif.). Briefly, cells were resuspended in 0.08% agar and plated on 0.06% agar in 96-well plates. […] Cells were either stained with iodonitrotetrazoliumchloride (Sigma, St. Louis, Mo.) or solubilized and quantified with CyQuant Dye according to the manufacturer's protocol. “ND” indicated not determined.

SNU16 cells = experiment: Soft agar colony formation assay; assay type: cell-based; settings: Homo sapiens, SNU-16, read-out: Soft Agar IC50 (nM)
Procedure: as §1

SNU1 cells = experiment: Soft agar colony formation assay; assay type: cell-based; settings: Homo sapiens, SNU1, read-out: Soft Agar IC50 (nM)
Procedure: as §1

Hec1B cells = experiment: Soft agar colony formation assay; assay type: cell-based; settings: Homo sapiens, HEC-1B, read-out: Soft Agar IC50 (nM)
Procedure: as §1

[2] = tested on: FGFR2 signaling in AN3CA endometrial cells (N549K); experiment: Signaling (Western immunoblotting), Table 12; settings: Homo sapiens, AN3-CA, read-out: Signaling IC50 (nM)
[3] = tested on: MDA-MB-453 breast cancer cells, mutant FGFR4 (Y367C); experiment: cells; settings: Homo sapiens, MDA-MB-453, read-out: Cell growth GI50 (nM)
P-FRS2a in OPM2 cells = experiment: Western immunoblotting; settings: Homo sapiens, OPM-2, read-out: IC50 for P-FRS2a
JAK2 = JAK2 (Homo sapiens, UniProt O60674); experiment: Kinase assay (RBC)
[4] = human, in vivo
[5] = tested on: Phospho-Erk1/2 in RL95 cells; experiment: Western immunoblotting; settings: read-out: Phospho-Erk1/2 IC50 (nM)
[6] = tested on: Ba/F3 cells expressing BCR-ABL^T315I; settings: for Wells with outgrowth: 480 wells surveyed
[7] = tested on: Phospho-Erk1/2 in Hec1B cells; experiment: Western immunoblotting; settings: Homo sapiens, HEC-1B, read-out: Phospho-Erk1/2 IC50 (nM)
[8] = tested on: SNU16 gastric cancer cells with amplified FGFR2; experiment: cells; settings: Homo sapiens, SNU-16, read-out: Cell growth GI50 (nM)
[9] = tested on: Phospho-Erk1/2 in MFE-296 cells; experiment: Western immunoblotting; settings: Homo sapiens, MFE-296, read-out: Phospho-Erk1/2 IC50 (nM)
[10] = tested on: wild-type FLT3 primary blasts; experiment: Ex vivo viability of primary AML cells (MTS, 72 h)
[11] = tested on: Phospho-FRS2a in RL95 cells; experiment: Western immunoblotting; settings: read-out: Phospho-FRS2a IC50 (nM)
KY01 CML leukemia cells = experiment: Cellular proliferation assay
RS4;11 cells (wt) = experiment: Cell viability assay (72 h); settings: Homo sapiens, RS4-11, 72 h, read-out: Cell viability IC50 (nM)
[12] = tested on: FGFR4 signaling in MDA-453 breast cells (Y367C); experiment: Signaling (Western immunoblotting), Table 12; settings: MDA-453, read-out: Signaling IC50 (nM)
[13] = tested on: MGH-U3 bladder cancer cells, mutant FGFR3b (Y375C); experiment: Cell growth assay (72 h); assay type: cell-based; settings: MGH-U3; read-out: Cell growth GI50
PKC8 = experiment: Kinase assay (RBC); settings: 10 μM ATP
[14] = tested on: Ba/F3 cells expressing native BCR-ABL
[15] = tested on: Kasumi-1 cells (c-KIT N822K); experiment: Cell viability assay (72 h); assay type: cell-based; settings: Homo sapiens, Kasumi 1, 72 h, read-out: Cell viability IC50 (nM)
[16] = tested on: refractory hematologic malignancies (CML, Ph+ ALL); experiment: Phase 1 clinical trial: hematologic, cytogenetic and molecular responses; assay type: in vivo, human; settings: for complete hematologic response (CHR) in CP patients: overall best response
Description: Fifty-seven patients (30 males) were enrolled and treated, median age 61 years (range 26-85) and median years from diagnosis 5.4 (0-21). Diagnoses included 50 CML (37 chronic [CP], 7 accelerated [AP], 6 blast phase [BP]), 3 Ph+ ALL, and 4 other malignancies (2 myelofibrosis, 1 myeloma, and 1 MDS).

ERBB4 = ERBB4 (Homo sapiens, UniProt Q15303); experiment: Kinase assay (RBC)
[17] = T315I patients evaluable for CyR

ERBB4, sequence (Q15303 718-985 limits assumed): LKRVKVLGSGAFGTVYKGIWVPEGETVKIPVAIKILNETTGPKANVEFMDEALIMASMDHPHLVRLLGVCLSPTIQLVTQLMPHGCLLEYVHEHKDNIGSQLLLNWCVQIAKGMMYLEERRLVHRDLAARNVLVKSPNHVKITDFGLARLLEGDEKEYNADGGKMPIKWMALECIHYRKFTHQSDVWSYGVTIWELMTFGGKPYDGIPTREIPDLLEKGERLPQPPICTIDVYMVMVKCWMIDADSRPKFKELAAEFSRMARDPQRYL
JAK2, sequence (O60674 849-1124 limits assumed): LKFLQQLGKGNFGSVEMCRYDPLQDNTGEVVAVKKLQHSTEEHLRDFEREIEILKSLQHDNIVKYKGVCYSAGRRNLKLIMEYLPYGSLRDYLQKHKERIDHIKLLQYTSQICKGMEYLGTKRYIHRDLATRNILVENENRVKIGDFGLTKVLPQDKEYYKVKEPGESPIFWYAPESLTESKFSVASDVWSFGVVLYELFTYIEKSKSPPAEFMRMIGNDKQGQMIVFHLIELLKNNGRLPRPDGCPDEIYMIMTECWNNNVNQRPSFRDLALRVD

Cc1ccc(C(=O)Nc2ccc(CN3CCN(C)CC3)c(C(F)(F)F)c2)cc1C#Cc1cnc2cccnn12 [Compound 1, 3-(imidazo[1,2-b]pyridazin-3-ylethynyl)-4-methyl-N-(4-((4-methylpiperazin-1-yl)-methyl)-3-(trifluoromethyl)phenyl)benzamide]
IC50 [1]: > 1000 nM | IC50 (AN3CA cells): 23 nM | IC50 (SNU16 cells): 29 nM | IC50 (SNU1 cells): > 1000 nM | IC50 (Hec1B cells): > 1000 nM | IC50 [2]: 4 nM | GI50 [3]: 275 nM | IC50 (P-FRS2a in OPM2 cells): 65 nM | IC50 (JAK2): 169 nM | accumulation after repeated dosing [4]: 1.5-3 fold | IC50 [5]: > 1000 nM | Occurrences (n), by specific compound mutation (with T315I) ([6]; 20 nM, 20 clones sequenced, T315I only): 20 | Frequency among clones (%) ([6]; 20 nM, T315I only): 100.0% | Wells with outgrowth ([6]; 40 nM): 192 | Frequency by residue (%) ([6]; 320 nM, E255): 100.0% | Occurrences (n), by residue ([6]; 320 nM, E255): 1 | Wells with outgrowth ([6]; 640 nM): 0 | IC50 [7]: > 1000 nM | GI50 [8]: 42 nM | IC50 [9]: 5.5 nM | IC50 ([10]; Homo sapiens, 72 h, read-out: IC50, viability): > 100 nM | effect on viability ([10]; concentrations tested up to 100 nM, 72 hours): no reduction in viability | IC50 [11]: > 1000 nM | IC50 (KY01 CML leukemia cells): 0.4 nM | IC50 (RS4;11 cells (wt)): > 100 nM | IC50 [12]: 30 nM | GI50 [13]: 163 nM and 204 nM | IC50 (PKC8): > 1000 nM | differential in sensitivity between cells expressing native BCR-ABL and parental cells [14]: greater than 3000 fold | IC50 [15]: 8 nM | AP, BP, or ALL patients achieving CCyR [16, 17]: 1 | AP, BP, or ALL patients achieving MCyR [16, 17]: 3 | CP patients achieving CCyR [16, 17]: 5 | CP patients achieving MCyR [16, 17]: 6 | MHR in AP, BP, or ALL patients ([16]; T315I subset): 3 of 8 | MMRs in patients with T315I at baseline ([16]; human, in vivo): 4 | MMRs ([16]; in 32 CP patients): 8 | MCyR ([16]; overall): 12 | complete cytogenetic responses (CCyR) ([16]; overall): 8 | major hematologic response (MHR) in AP, BP, or ALL patients ([16]; overall): 5 of 12 | complete hematologic response (CHR) in CP patients [16]: 85% | complete hematologic response (CHR) in CP patients ([16]; incl. new and baseline CHR): 22 of 22 | IC50 (ERBB4): 176 nM
